Measurements from ChEMBL document CHEMBL2073890, “Multispecific amphipathic substrate transport by an organic anion transporter of human liver” (J Hepatol, 1996).

Key:
Format in all cases: functional, cell-based, Oocyte
[1] = target: T1, Solute carrier organic anion transporter family member 1A2 (OATP1A2) (Homo sapiens, UniProt P46721); assay: TP_TRANSPORTER: uptake in Xenopus laevis oocytes
T1 sequence (P46721 whole entry): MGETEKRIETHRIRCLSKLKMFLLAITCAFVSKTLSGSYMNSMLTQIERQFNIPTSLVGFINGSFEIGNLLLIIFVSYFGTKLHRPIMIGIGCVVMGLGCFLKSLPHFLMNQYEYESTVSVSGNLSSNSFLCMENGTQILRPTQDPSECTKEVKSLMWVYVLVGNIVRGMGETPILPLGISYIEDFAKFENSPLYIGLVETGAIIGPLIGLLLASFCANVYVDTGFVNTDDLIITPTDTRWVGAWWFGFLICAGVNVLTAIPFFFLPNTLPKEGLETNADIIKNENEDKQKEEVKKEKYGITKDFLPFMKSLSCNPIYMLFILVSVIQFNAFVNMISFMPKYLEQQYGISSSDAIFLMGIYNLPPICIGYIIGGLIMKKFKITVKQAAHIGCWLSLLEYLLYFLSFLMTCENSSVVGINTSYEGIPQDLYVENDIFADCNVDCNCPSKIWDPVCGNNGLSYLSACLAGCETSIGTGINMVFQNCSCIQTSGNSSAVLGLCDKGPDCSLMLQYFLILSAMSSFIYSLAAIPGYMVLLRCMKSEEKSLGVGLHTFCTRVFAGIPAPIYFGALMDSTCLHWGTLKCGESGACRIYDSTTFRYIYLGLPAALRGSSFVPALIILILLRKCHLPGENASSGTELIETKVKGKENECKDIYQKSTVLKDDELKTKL

[2] = target: T1, Solute carrier organic anion transporter family member 1A2 (OATP1A2); assay: TP_TRANSPORTER: inhibition of E1S uptake (E1S: 0.2 uM, TCDC: 100 uM) in Xenopus laevis oocytes; details: probe E1S (estrone sulfate)
[3] = target: T1, Solute carrier organic anion transporter family member 1A2 (OATP1A2); assay: TP_TRANSPORTER: inhibition of Ouabain uptake (Ouabain: 100 uM, TCDC: 100 uM) in Xenopus laevis oocytes; details: probe Ouabain

SMILES	Km [1]	inhibition at 100 µM [2]	inhibition at 100 µM [3]
C[C@]12CC[C@@H]3c4ccc(OS(=O)(=O)O)cc4CC[C@H]3[C@@H]1CCC2=O [ESTRONE SULFURIC ACID]	59 µM		
C[C@@H]1O[C@@H](O[C@H]2C[C@@H](O)[C@]3(CO)[C@H]4[C@H](O)C[C@]5(C)[C@@H](C6=CC(=O)OC6)CC[C@]5(O)[C@@H]4CC[C@]3(O)C2)[C@H](O)[C@H](O)[C@H]1O [OUABAIN]	5500 µM		
C[C@H](CCC(=O)NCCS(=O)(=O)O)[C@H]1CC[C@H]2[C@@H]3[C@H](O)C[C@@H]4C[C@H](O)CC[C@]4(C)[C@H]3CC[C@]12C [TAUROCHENODEOXYCHOLATE]		91%	100%
